Read-outs that look alike come from different tables or passages of the source.
System: HCV replicon
Experiment: Cell-Based HCV Replicon Assay
Settings: Hepatitis C virus, 72 h
Procedure: Cell-Based HCV Replicon Assay
To measure cell-based anti-HCV activity of the compounds of the present invention, replicon cells were seeded at 5000 cells/well in 96-well collagen I-coated Nunc plates in the presence of the compound of the invention. Various concentrations of a compound of the invention, typically in 10 serial 2-fold dilutions, were added to the assay mixture, the starting concentration of the compound ranging from 25 μM to 1 μM. The final concentration of DMSO was 0.5%, fetal bovine serum was 10%, in the assay media. Cells were harvested on day 3 by the addition of 1× cell lysis buffer (Ambion cat #8721). The replicon RNA level was measured using real time PCR (Taqman assay). The amplicon was located in 5B. The PCR primers were: 5B.2F, ATGGACAGGCGCCCTGA; 5B.2R, […]; the probe sequence was FAM-labeled CACGCCATGCGCTGCGG. GAPDH RNA was used as endogenous control and was amplified in the same reaction as NS5B (multiplex PCR) using primers and VIC-labeled probe recommended by the manufacturer (PE Applied Biosystem). The real-time RT-PCR reactions were run on ABI PRISM® 7900HT Sequence Detection System using the following program: 48′C for 30 min, 95′C for 10 min, 40 cycles of 95′C for 15 sec, 60′C for 1 min. The ΔCT values (CT5B-CTGAPDH) were plotted against the concentration of test compound and fitted to the sigmoid dose-response model using Graph Pad PRISM® software. EC50 was defined as the concentration of inhibitor necessary to achieve ΔCT=1 over the projected baseline; EC90 the concentration necessary to achieve ΔCT=3.2 over the baseline. Alternatively, to quantitate the absolute amount of replicon RNA, a standard curve was established by including serially diluted T7 transcripts of replicon RNA in the Taqman assay. All Taqman reagents were from PE Applied Biosystems. Such an assay procedure was described in detail in e.g. Malcolm et al., Antimicrobial Agents and Chemotherapy 50: 1013-1020 (2006).
HCV Replicon assay data for compounds of the invention that were tested were obtained using the above method.

[1] = Table IV, replicon cells, day 3, real time PCR, EC90 = concentration for ΔCT=3.2 over baseline, read-out: EC90
[2] = Table V, class codes, replicon cells, day 3, real time PCR, EC90 = concentration for ΔCT=3.2 over baseline, read-out: EC90 (uM) range
[3] = Table V, cells printed as numeric bound instead of code, replicon cells, day 3, real time PCR, read-out: EC90 (uM) range

Structure (SMILES)	EC90 [1] [µM]	EC90 [2] [µM]	further results
CCOc1cc2cc(-c3c(C)nc(NCC4CC4)nc3N[C@@H]3C[C@H](C(C)(C)O)[C@@H](O)[C@H]3O)oc2c(C)n1 [Example 2511]	0.13		
CO[C@H](C)CNc1nc(C)c(-c2nc3c(C)nccc3s2)c(N[C@@H]2C[C@H](C(C)(C)O)[C@@H](O)[C@H]2O)n1 [Example 3030]	0.104		
CO[C@@H](C)CNc1nc(C)c(-c2nc3c(C)nccc3s2)c(N[C@@H]2C[C@H](C(C)(C)O)[C@@H](O)[C@H]2O)n1 [Example 3031]	0.104		
Cc1nc(NCC2CC2)nc(N[C@@H]2C[C@H](C(F)F)[C@@H](O)[C@H]2O)c1-c1nc2c(C)nccc2s1 [Example 3036]	0.044		
Cc1nc(NCC2CC2)nc(N[C@@H]2C[C@H](C(C)(F)F)[C@@H](O)[C@H]2O)c1-c1nc2c(C3CC3)nccc2s1 [Example 3056]	0.007		
COC[C@@H](C)Nc1nc(C)c(-c2nc3c(C)nccc3s2)c(N[C@@H]2C[C@H](C(C)(C)O)[C@@H](O)[C@H]2O)n1 [Example 3137]	0.118		
CCC(O)(CC)[C@H]1C[C@@H](Nc2nc(NCC3CC3)nc(C)c2-c2nc3c(C)nccc3s2)[C@H](O)[C@@H]1O [Example 3182]	0.068		
Cc1nc(NCc2c(F)cc(F)cc2F)nc(N[C@@H]2C[C@H](C(C)(C)O)[C@@H](O)[C@H]2O)c1-c1nc2c(C)nccc2s1 [Example 3188]	0.021		
Cc1nc(NCC2CC(F)(F)C2)nc(N[C@@H]2C[C@H](C(C)(C)O)[C@@H](O)[C@H]2O)c1-c1nc2c(C)nccc2s1 [Example 3239]	0.01		
Cc1cc2sc(-c3c(C)nc(NCc4c(F)cc(F)cc4F)nc3N[C@@H]3C[C@H](CO)[C@@H](O)[C@H]3O)nc2c(C)n1 [Example 3438]	0.011		
Cc1nc(NC2CCC2)nc(N[C@@H]2C[C@H](CS(C)(=O)=O)[C@@H](O)[C@H]2O)c1-c1nc2c(C3CC3)nccc2s1 [Example 3513]	0.054		
Cc1nc(NCc2c(F)cccc2F)nc(N[C@@H]2C[C@H](CS(C)(=O)=O)[C@@H](O)[C@H]2O)c1-c1nc2c(C3CC3)nccc2s1 [Example 3538]	0.007		
Cc1nc(NCC2CC2)nc(N[C@@H]2C[C@H](CC(C)(C)O)[C@@H](O)[C@H]2O)c1-c1nc2c(C)nccc2s1 [Example 3552]	0.024		
Cc1nc(N[C@H](C)C2CC2)nc(N[C@@H]2C[C@H](CCO)[C@@H](O)[C@H]2O)c1-c1nc2c(C)nccc2s1 [Example 3561]	0.023		
Cc1nc(NCc2c(F)cc(F)cc2F)nc(N[C@@H]2C[C@H](CS(C)(=O)=O)[C@@H](O)[C@H]2O)c1-c1nc2c(C3CC3)nccc2s1 [Example 3563]	0.003		
Cc1nc(NCc2c(F)cccc2F)nc(N[C@@H]2C[C@H](CC#N)[C@@H](O)[C@H]2O)c1-c1nc2c(C3CC3)nccc2s1 [Example 3569]	0.016		
Cc1nc(NCC2CC2)nc(N[C@@H]2C[C@H](CS(=O)(=O)c3ccncc3)[C@@H](O)[C@H]2O)c1-c1nc2c(C)nccc2s1 [Example 3580]	0.012		
CCOCCNc1nc(C)c(-c2nc3c(C4CC4)nccc3s2)c(N[C@@H]2C[C@H](CS(=O)(=O)CC)[C@@H](O)[C@H]2O)n1 [Example 3721]	0.024		
Cc1nc(NCC2CC2)nc(N[C@@H]2C[C@H](CS(=O)(=O)c3ccccc3)[C@@H](O)[C@H]2O)c1-c1nc2c(C3CC3)nccc2s1 [Example 3744]	0.044		
Cc1nc(NCc2c(F)cccc2F)nc(N[C@@H]2C[C@H](CS(=O)(=O)c3cc(F)cc(F)c3)[C@@H](O)[C@H]2O)c1-c1nc2c(C)nccc2s1 [Example 3754]	0.015		
CCNC(=O)C(O)[C@H]1C[C@@H](Nc2nc(N[C@H](C)COCC)nc(C)c2-c2nc3c(C)nccc3s2)[C@H](O)[C@@H]1O (stereo partly shown) [Example 4025]	0.008		
Cc1nc(NCC(F)(F)C(F)(F)F)nc(N[C@@H]2C[C@H](C(C)(C)O)[C@@H](O)[C@H]2O)c1-c1nc2c(C)nccc2s1 [Example 4346]	0.043		
Cc1nc(N[C@H](C)c2ccc(OC(F)(F)F)cc2)nc(N[C@@H]2C[C@H](CO)[C@@H](O)[C@H]2O)c1-c1nc2c(N)nccc2s1 [Example 4413]	0.121		
Cc1nc(NCc2c(F)cccc2F)nc(N[C@@H]2C[C@H](C(C)(C)O)[C@@H](O)[C@H]2O)c1-c1nc2c(N)nccc2s1 [Example 4443]	0.055		
Cc1nc(NC[C@H]2C[C@@H](c3ccccc3)C2)nc(N[C@@H]2C[C@H](CO)[C@@H](O)[C@H]2O)c1-c1nc2cnccc2s1 [Example 4512]	0.019		

Structure (SMILES)	EC90 [1] [µM]	EC90 [2] [µM]	further results
Cc1nc(NC[C@H]2C[C@H](c3ccccc3)C2)nc(N[C@@H]2C[C@H](CO)[C@@H](O)[C@H]2O)c1-c1nc2cnccc2s1 [Example 4513]	0.016		
CCc1cc2sc(-c3c(C)nc(NCC(F)(F)F)nc3N[C@@H]3C[C@H](CO)[C@@H](O)[C@H]3O)nc2c(CC)n1 [Example 4706]	0.045		
Cc1nc(NCc2ccccc2F)nc(N[C@@H]2C[C@H](CO)[C@@H](O)[C@H]2O)c1-c1nc2c(C3CC3)nccc2s1 [Example 4901]		< 0.5	
Cc1nc(NCc2cccc(F)c2)nc(N[C@@H]2C[C@H](CO)[C@@H](O)[C@H]2O)c1-c1nc2c(C3CC3)nccc2s1 [Example 4902]		< 0.5	
CO[C@@H]1[C@@H](CO)C[C@@H](Nc2nc(NCC3CC3)nc(C)c2-c2nc3c(C)nccc3s2)[C@@H]1O [Example 4903]		< 0.5	
CO[C@@H]1[C@@H](CO)C[C@@H](Nc2nc(N[C@H](C)c3ccc(OC(F)(F)F)cc3)nc(C)c2-c2nc3c(C)nccc3s2)[C@@H]1O [Example 4904]		< 0.5	
CO[C@@H]1[C@@H](CO)C[C@@H](Nc2nc(NCC(F)(F)F)nc(C)c2-c2nc3c(C)nccc3s2)[C@@H]1O [Example 4905]		< 0.5	
CNc1nc(C)c(-c2nc3c(C)nccc3s2)c(N[C@@H]2C[C@H](CO)[C@@H](OC)[C@H]2O)n1 [Example 4906]		0.5 to 5	
CO[C@@H]1[C@@H](CO)C[C@@H](Nc2nc(N)nc(C)c2-c2nc3c(C)nccc3s2)[C@@H]1O [Example 4907]		< 0.5	
Cc1cc2sc(-c3c(C)nc(NCc4c(F)cccc4F)nc3N[C@@H]3C[C@H](CO)[C@@H](O)[C@H]3O)nc2cn1 [Example 4908]		< 0.5	
Cc1cc2sc(-c3c(C)nc(NCC4CC4)nc3N[C@@H]3C[C@H](CO)[C@@H](O)[C@H]3O)nc2cn1 [Example 4909]		< 0.5	
Cc1cc2sc(-c3c(C)nc(NCC(F)(F)F)nc3N[C@@H]3C[C@H](CO)[C@@H](O)[C@H]3O)nc2cn1 [Example 4910]		< 0.5	
CCOCCNc1nc(C)c(-c2nc3cnc(C)cc3s2)c(N[C@@H]2C[C@H](CO)[C@@H](O)[C@H]2O)n1 [Example 4911]		< 0.5	
Cc1cc2sc(-c3c(C)nc(N[C@H](C)C4CCC4)nc3N[C@@H]3C[C@H](CO)[C@@H](O)[C@H]3O)nc2cn1 [Example 4912]		< 0.5	
Cc1ccc([C@@H](C)Nc2nc(C)c(-c3nc4cnc(C)cc4s3)c(N[C@@H]3C[C@H](CO)[C@@H](O)[C@H]3O)n2)cc1 [Example 4913]		< 0.5	
Cc1nccc2sc(-c3cnc(N[C@H](C)C4CCC4)nc3N[C@@H]3C[C@H](CO)[C@@H](O)[C@H]3O)nc12 [Example 4915]			EC90 (read-out: EC90 (uM) range): > 1 µM
COCCNc1ncc(-c2nc3c(C4CC4)nccc3s2)c(N[C@@H]2C[C@H](CS(C)(=O)=O)[C@@H](O)[C@H]2O)n1 [Example 4916]		0.5 to 5	
C[C@@H](Nc1ncc(-c2nc3c(C4CC4)nccc3s2)c(N[C@@H]2C[C@H](CS(C)(=O)=O)[C@@H](O)[C@H]2O)n1)C1CC1 [Example 4917]			EC90 [3]: > 0.2 µM
C[C@@H](Nc1ncc(-c2nc3c(C4CC4)nccc3s2)c(N[C@@H]2C[C@H](CS(C)(=O)=O)[C@@H](O)[C@H]2O)n1)C1CCC1 [Example 4918]		< 0.5	
CS(=O)(=O)C[C@H]1C[C@@H](Nc2nc(N)ncc2-c2nc3c(C4CC4)nccc3s2)[C@H](O)[C@@H]1O [Example 4919]		< 0.5	
CS(=O)(=O)C[C@H]1C[C@@H](Nc2nc(NCC3CC3)ncc2-c2nc3c(C4CC4)nccc3s2)[C@H](O)[C@@H]1O [Example 4920]		< 0.5	
C[C@@H](Nc1ncc(-c2nc3c(C4CC4)nccc3s2)c(N[C@@H]2C[C@H](CS(C)(=O)=O)[C@@H](O)[C@H]2O)n1)c1ccc(OC(F)(F)F)cc1 [Example 4921]		0.5 to 5	
CS(=O)(=O)C[C@H]1C[C@@H](Nc2nc(NC3CCC3)ncc2-c2nc3c(C4CC4)nccc3s2)[C@H](O)[C@@H]1O [Example 4922]			EC90 [3]: > 0.3 µM
Cc1nc(N[C@H](C)C2CC2)nc(N[C@@H]2C[C@H](C(=O)N3CCOCC3)[C@@H](O)[C@H]2O)c1-c1nc2c(C3CC3)nccc2s1 [Example 4923]		< 0.5	
